Reference: patent publication US8158764B2 (priority 2006, dated 2012)
Several values for one entry are separate records, joined by “and”; a condition that tells them apart may be missing. Equal values may be shown once.

How the values were obtained:
[1] = target: T1, human μ receptors (Homo sapiens, UniProt P35372); test: biochemical; type: binding
T1 construct: expressed in transfected cells; host or cells: HEK-293

[2] = target: T2, κ receptors (Cavia porcellus, UniProt P41144); test: Affinity to κ receptors, [3H]U-69593 binding on cerebellum homogenates; parameters: species or system guinea-pigs; details: for Ki: guinea-pig cerebellum, 0.7 nM [3H]U-69593, read-out: Ki (nM) κ Receptor
T2 construct: homogenates of guinea-pigs cerebellum (250 μg of protein); from tissue; host or cells: guinea-pig cerebellum
Experimental: (§1) The non specific binding was determined in the presence of 10 μM of naltrexone. After incubation, samples were rapidly filtered through glass fibers (GF/B, Packard), previously incubated with 0.3% of polyethyleneimine and rinsed several times with 50 mM of cold Tris-HCl using a “96-sample cell harvester” (Unifilter, Packard). Filters were afterwards dried and the radioactivity was counted.

[3] = Activity and toxicity of the 3-methoxy derivative (test not specified); details: in words
[4] = Tail flick test (analgesic activity); type: in vivo, mouse; parameters: AUC, tail flick test: unit not given here; details: for duration of the analgesic activity compared with morphine: in words, tail flick and hot plate tests; for ED50 / Max Effect (time), tail flick test: mouse, intravenous
Experimental: The “Tail flick” test (test of D'Amour & Smith, 1941, Pharmacol Exp Ther; 72: 74-79) consists in placing the tail of a mouse, after administration of a product, in front of an infrared source in order to produce a nociceptive stimulus (a surface temperature of 55° C.). The reaction time (RT) of the mouse (latency between the start of the light beam and the moment the mouse withdraws its tail) was measured in duplicate at 8 times spread from […] after administration of the product. A maximal 10 second-period has been chosen as the maximal reaction time in order to avoid any tissue damage for the animal.
Products were intravenously-administered at doses comprised between 0.5 and 8 mg/kg (8 mice per group).
Two measures of reaction time were realized before administration of the product for each mouse so as to establish a base line.
The MPE % represents the percentage of possible maximal effect and corresponds to the following formula: […]

[5] = Hot plate test (analgesic activity); type: in vivo; details: mouse, intravenous
[6] = target: T3, δ receptors (Homo sapiens, UniProt P41143); test: Affinity to δ receptors, [3H]DADLE binding on cell membrane homogenates (CHO cells)
T3 construct: expressed in transfected cells; host or cells: CHO
Experimental: as §1

[7] = target: T4, κ receptor (Oryctolagus cuniculus, UniProt G1SJ19); type: biochemical, rabbit
T4 construct: using prostatic segments of rabbits' deferens vas; from tissue; host or cells: rabbit vas deferens (prostatic segments)

[8] = target: T4, κ receptor; test: Antagonist activity on κ receptor, electrically stimulated rabbit vas deferens; type: biochemical
Experimental: The agonist/antagonist activity on K receptors of compounds according to the invention was estimated by using prostatic segments of rabbits' deferens vas, stretched and stimulated by an electric current of 0.1 Hz during 1 msec.
In order to test an antagonist activity, a response control (peak of contraction of the tissue) was obtained by exposing tissues to a high concentration (0.1 μM) in specific agonist U-69593.
Tissues were then exposed to growing concentrations of the compound according to the invention or to the specific agonist. The various concentrations were cumulated and each concentration was maintained in contact with the tissue until a stable response was obtained or up to […].
An antagonist response was observed when the amplitude of peaks of contractions provoked by electric stimulation was similar to the one observed with the nor-BNI.
The measured parameter was a maximal change of amplitude of the peaks of contractions provoked by electric stimulation with various concentrations of the compound.

[9] = Intestinal transit in mice

T1 sequence (P35372 whole entry): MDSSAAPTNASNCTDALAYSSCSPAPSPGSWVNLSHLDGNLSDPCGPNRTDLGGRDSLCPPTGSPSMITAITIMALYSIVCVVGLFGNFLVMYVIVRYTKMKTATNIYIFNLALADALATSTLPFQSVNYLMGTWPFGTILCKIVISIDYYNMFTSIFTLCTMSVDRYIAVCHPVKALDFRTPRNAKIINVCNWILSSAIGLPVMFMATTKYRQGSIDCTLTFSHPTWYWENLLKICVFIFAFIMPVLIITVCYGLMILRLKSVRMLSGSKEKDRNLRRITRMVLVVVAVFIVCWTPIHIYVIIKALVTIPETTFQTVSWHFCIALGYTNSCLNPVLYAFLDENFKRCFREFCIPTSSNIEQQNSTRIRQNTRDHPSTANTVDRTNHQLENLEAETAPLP
T4 sequence (G1SJ19 1-383): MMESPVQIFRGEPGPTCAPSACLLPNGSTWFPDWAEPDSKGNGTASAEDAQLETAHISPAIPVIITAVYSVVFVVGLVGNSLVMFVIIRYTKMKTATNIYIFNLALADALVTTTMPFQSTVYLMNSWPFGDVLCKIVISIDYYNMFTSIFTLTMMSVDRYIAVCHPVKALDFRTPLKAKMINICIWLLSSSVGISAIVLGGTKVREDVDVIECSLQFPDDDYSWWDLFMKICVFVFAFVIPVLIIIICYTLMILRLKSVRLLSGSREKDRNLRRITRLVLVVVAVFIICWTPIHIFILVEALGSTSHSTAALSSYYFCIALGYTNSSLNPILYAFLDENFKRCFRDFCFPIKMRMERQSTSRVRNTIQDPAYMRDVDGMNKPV
T2 sequence (P41144 whole entry): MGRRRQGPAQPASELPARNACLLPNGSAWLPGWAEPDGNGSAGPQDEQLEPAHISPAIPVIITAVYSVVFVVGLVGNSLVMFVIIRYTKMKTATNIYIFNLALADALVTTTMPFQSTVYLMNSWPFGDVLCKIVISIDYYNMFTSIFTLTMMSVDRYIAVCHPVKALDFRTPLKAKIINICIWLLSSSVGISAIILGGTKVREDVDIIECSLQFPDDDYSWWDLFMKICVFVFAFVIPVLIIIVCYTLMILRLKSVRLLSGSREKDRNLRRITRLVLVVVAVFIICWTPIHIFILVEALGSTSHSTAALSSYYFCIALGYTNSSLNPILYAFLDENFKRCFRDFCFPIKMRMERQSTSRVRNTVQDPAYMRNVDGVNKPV
T3 sequence (P41143 whole entry): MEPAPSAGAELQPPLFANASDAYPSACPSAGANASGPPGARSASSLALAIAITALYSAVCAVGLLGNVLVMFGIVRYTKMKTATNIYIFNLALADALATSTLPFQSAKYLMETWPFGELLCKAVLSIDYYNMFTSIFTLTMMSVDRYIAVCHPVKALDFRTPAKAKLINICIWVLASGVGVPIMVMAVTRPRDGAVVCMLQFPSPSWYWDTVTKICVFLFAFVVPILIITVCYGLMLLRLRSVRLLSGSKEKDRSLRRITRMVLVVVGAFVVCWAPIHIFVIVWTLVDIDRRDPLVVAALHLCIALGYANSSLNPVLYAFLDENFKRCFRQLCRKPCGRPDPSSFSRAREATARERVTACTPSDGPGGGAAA

SMILES | Ki [1] | Ki [2] | AUC, tail flick test ([4]; dose 1 mg/kg iv) | AUC, tail flick test ([4]; dose 2 mg/kg iv) | AUC, tail flick test ([4]; dose 4 mg/kg iv) | AUC, tail flick test ([4]; dose 8 mg/kg iv) | duration of the analgesic activity compared with morphine [4] | ED50 [4] | Max Effect (time), tail flick test [4] | ED50 [5] | Effet max (time), hot plate test [5] | other results
COc1ccc2c3c1OC1C(OC4OC(C(=O)NCCS)C(O)C(O)C4O)C=CC4C(C2)N(C)CCC341 (centres unmarked) [Compound C6G-cya] | 11 nM | 100 nM | – | – | – | – | – | – | – | – | – | activity of the 3-methoxy substituted compound [3]: inactive; toxicity of the 3-methoxy substituted compound [3]: toxic
CCOc1ccc2c3c1OC1C(OC4OC(C(=O)NCCS)C(O)C(O)C4O)C=CC4C(C2)N(C)CCC341 (centres unmarked) [Compound M3Et-6G-cya] | 13 nM | 220 nM | 1047.85 | 2538.93 | 5012.90 | 6059.22 | much longer | 2.04 mg/kg | 120 min | 2.75 mg/kg | 120 min | –
CCOc1ccc2c3c1O[C@H]1[C@@H](O[C@@H]4O[C@H](C(=O)NCCSSCCC(=O)Nc5cccc6c7c([nH]c56)[C@@H]5Oc6c(O)ccc8c6[C@@]56CCN(CC5CC5)[C@H](C8)[C@]6(O)C7)[C@@H](O)[C@H](O)[C@H]4O)C=CC4[C@@H](C2)N(C)CC[C@@]341 (some centres unmarked) [M3Et-6G-cya-3MP-NTI] | – | – | – | 2576 | 4410 | 5733 | – | 2.9 mg/kg | 120 min | – | – | –
CCOc1ccc2c3c1OC1C(OC4OC(C(=O)NCCSSCCNC(=O)C5OC(OC6C=CC7C8Cc9ccc(OCC)c%10c9C7(CCN8C)C6O%10)C(O)C(O)C5O)C(O)C(O)C4O)C=CC4C(C2)N(C)CCC341 (centres unmarked) [M3Et-6G-cya-cya-M3Et-6G] | 14 nM | 25 nM | 1233.75 | 4824.51 | 5915.16 | 5817.46 | much longer | 1.32 mg/kg | 120 min | 1.35 mg/kg | 120 min | Ki [6]: > 1000 nM; improvement of affinity for κ receptors (factor) ([2]; compared with morphine): 6; agonist activity: response in % of the response control at U-69593 [7]: 0% and −4% and −3%; antagonist activity: response in % of the response control at U-69593 (0.1 μM) ([8]; compound 0.03 μM): 100%; antagonist activity: response in % of the response control at U-69593 (0.1 μM) ([8]; compound 0.3 μM): 100%; antagonist activity: response in % of the response control at U-69593 (0.1 μM) ([8]; compound 3 μM): 92%; antagonist activity: response in % of the response control at U-69593 (0.1 μM) ([8]; compound 30 μM): 71%; agonist/antagonist behaviour on κ receptor ([8]; in words): behaves as a κ receptor antagonist; AUC, tail flick test ([4]; dose 0.5 mg/kg iv): 617.79; duration of maximum analgesic activity ([4]; injected at two-fold ED50, no supplementary dose): at least 6 hours; transit inhibition ([9]; at the maximal analgesic effect after iv injection at ED50): about 90%; analgesia when transit speed becomes normal ([9]; between 10 and 12 hours after injection): 50%; effect on transit while analgesic activity is maintained at maximum ([9]; in words): transit only slows down
Oc1ccc2c3c1O[C@H]1c4[nH]c5c(c4C[C@@]4(O)[C@@H](C2)N(CC2CC2)CC[C@]314)C[C@@]1(O)[C@H]2Cc3ccc(O)c4c3[C@@]1(CCN2CC1CC1)[C@H]5O4 [nor-BNI, nor-binaltorphimine, reference compound] | – | – | – | – | – | – | – | – | – | – | – | antagonist activity: response in % of the response control at U-69593 (0.1 μM) ([8]; compound 0.1 nM): 80%; antagonist activity: response in % of the response control at U-69593 (0.1 μM) ([8]; compound 0.3 nM): 55%; antagonist activity: response in % of the response control at U-69593 (0.1 μM) ([8]; compound 1 nM): −1%
